Source: patent publication US7141553B2, “A3AR agonists for the treatment of inflammatory arthritis” (Can-Fite Biopharma Ltd. Israel, priority 2002, dated 2006)

What was measured:
[1] = Plasma half life in mice; format: in vivo, mouse
[2] = system: healthy men; assay: Single dose study in healthy men, safety and tolerability; format: in vivo, human; conditions: for maximal tolerated dose: once daily administration
Procedure: Two clinical studies were carried out: a single dose study and a repeat dose study. Both studies were parallel-group, double-blind, dose-rising, and placebo-controlled in design.
In the single dose study, 15 healthy men (3 groups of 5) received a single oral dose of IB-MECA (1, 5 or 10 mg) or placebo. In each group, 1 subject received placebo. In the repeated dose study, 28 healthy men (4 groups of 7) received repeated oral doses of IB-MECA (2, 3, 4 or 5 mg) or placebo every 12 h for 7 days. In each group, 2 subjects received placebo.
Healthy young men, aged 18–45 years.
In the single dose study, a solution with IB-MECA powder in 30% Cremophor RH40 (BASF) was used. In the repeated dose study, an aqueous 0.5% methylcellulose suspension (Methocel A4M Premium, The Dow Chemical Company) was used. In both studies, the study medication was taken orally as a drink, followed by 50 ml of tap water.
The following procedures were done: • Safety assesment: laboratory assessments (routine biochemistry and urinalysis), physical examination, 12-lead ECG, ambulatory ECG, pulmonary function testing (FEV1), vital signs (semi-recumbent in the single dose study; semi-recumbent and standing in the repeat dose study). Adverse events were recorded throughout both studies. • Determination of IB-MECA blood level: in the single dose study blood samples for assay of IB-MECA were taken immediately before and at 0.25, 0.5, 1, 2, 4, 8, 12, 24, and 48 h after dosing; in the repeat dose study—blood samples were taken immediately before and at 0.25, 0.5, 1, 2, 4, 8, and 12 h after dosing on Day 1, before dosing on Days 2–6, and before and at 0.25, 0.5, 1, 2, 4, 8, 12, and 24 h after dosing on Day 7.
Data from all subjects who received IB-MECA were included in the analysis of safety and tolerability (adverse events and laboratory safety variables). Numerical data and parameters were summarised using means or medians, and other descriptive statistics, according to the type and distribution of the data.

[3] = system: collagen-induced arthritis; conditions: 0.5 mg/kg a day; cited from earlier work
[4] = Human studies, plasma half life (data not shown); format: in vivo
[5] = system: adjuvant induced arthritis; assay: Adjuvant arthritis model in Lewis rats; format: in vivo, rat
[6] = system: patients with active rheumatoid arthritis; assay: Clinical trial in humans, effect on rheumatoid arthritis; format: in vivo, human; conditions: 0.1, 1 or 4 mg twice daily orally, up to 12 weeks; in at least half of 15 patients
Text: Patients with active rheumatoid arthritis were chosen for the study. All chosen patients met the following criteria:
Rheumatoid arthritis patients that were included in the study, met the following inclusion criteria: • 1. Males and females 18 years of age or older • 2. Functional Class I, II, or III by the criteria of the American College of Rheumatology • 3. Active RA, as indicated by the presence of (a) ≧6 swollen joints; AND (b) ≧29 tender joints; AND at least one of he following: (c) Westergren ESR of ≧28 mm/hour; OR (d) CRP level of >2.0 mg/dL; OR (e) morning stiffness for >45 minutes • 4. History of unsuccessful treatment (documented intolerance or lack of efficacy as determined by the Investigator) with at least 1, but no more than 4, of the following disease modifying anti-rheumatic drugs (DMARDs): methotrexate, hydroxychloroquine, sulfasalazine, oral or injectable gold, azathioprine, leflunomide, minocycline, and penicillamine, alone or in combination Protocol
Patients included in the study were subjected to a 1 month washout period in which they ceased to take any DMARD. Following this one months washout the patients were administered twice daily with either with 0.1 mg, 1 mg of 4 mg of IB-MECA in a double-blind fashion. […]
Disease activity was assessed using standard criteria as laid down by the American College of Rheumatology (ACR).

For `CNC(=O)[C@H]1O[C@@H](n2cnc3c(NCc4cccc(I)c4)ncnc32)[C@H](O)[C@@H]1O` [IB-MECA, N6-(3-iodobenzyl)-adenosine-5′-N-methyl-uronamide], the half life [1] was 1.5 h, the “change in resting heart rate” value ([2]; after single 5 mg dose, four subjects) was “small increase in resting heart rate” and the resting heart rate ([2]; after single 10 mg dose, 2 subjects, considered drug-related) was “up to 115 beats/min”. The maximal tolerated dose [2] was “about 5 mg”, the maximal tolerated dose ([2]; calculated on average human weight of 70 Kg) was “about 70 micro ram/Kg” and the “adverse events within 12 h of dosing” value ([2]; single dose of 10 mg) was 8. For the same compound, the “adverse events within 12 h of dosing” value ([2]; single doses of up to 5 mg) was “no adverse events”, the tolerability ([2]; single oral doses of up to 5 mg) was “safe and well tolerated” and the “severity of joint inflammation” value [3] was “reduced the severity of joint inflammation”. The “half life in human plasma” value [4] was 8 to 10 h, the “inflammation as assessed by the inflammation intensity score” value (shortened to “inflammation as assessed”) ([5]; 1 μg/day PO, FIG. 1B) was “significant reduction” and the “histological picture of the joint” value ([5]; 10 μg a day, FIG. 3B, untreated shows destruction of synovial tissue and bone) was “appeared completely normal”. The “inflammation as assessed” value ([5]; 10 μg/kg PO a day, treatment from day 7 after disease induction, FIG. 1A) was “effective in abolishing almost completely the inflammation”, the appearance of paws ([5]; 10 μg/kg a day PO, untreated rat paws extremely swollen and red) was “normal appearing paws” and the “inflammation as assessed” value ([5]; 100 μg/kg PO a day, treatment from day 7 after disease induction, FIG. 1A) was “effective in abolishing almost completely the inflammation”. For the same compound, the “disease symptoms (ACR criteria)” value [6] was “significant improvement in disease symptoms”.
